Measurements from patent US20180161376A1, “COMPOSITIONS AND METHODS FOR NEURONAL DIFFERENTIATION OF CELLS” (Northern Sydney Local Health District, priority 2014, published 2018).

Columns and labels:
Assay type in all cases: cell-based, human
SMAD4 = test: RT-qPCR of SMAD4 mRNA in olfactory neurospheres treated with SB, LDN and TRIM; details: ONS cells
Experimental: Primary olfactory cells were dissociated into single cells and seeded onto Poly L-Lysine (Sigma) coated tissue culture dishes at 20,000 cells/cm^2 in sphering media, which consists of DMEM+1×ITS+[…]. Cells were then incubated at 37° C. with 5% CO2 until neurospheres started to form. This normally takes 2-3 days. Small neurospheres (<200 μm in diameter) were manually picked under a dissecting microscope (Leica) and collected for differentiation.
For olfactory neurosphere differentiation experiments, cells were cultured in ONS differentiation media, which consists of neural basal media+1×B27+1×L-glutamine+pen/strep+1×β-mercaptoethanol+AA+BDNF supplemented with combinations of SB, LDN and TRIM. Cells were differentiated for 3-4 days before collected for analysis. Media was changed on the second day.
RT-qPCR was performed on cDNA samples with a Rotor-Gene 6000 (Corbett) using SYBER green based assays (Qiagen). All samples were normalized to GAPDH and the relative expression of each gene was determined using the delta-delta CT method. The primer sequences used are as follows:
The ability for ONS to respond to the treatments of SB, LDN and TRIM was tested. QPCR was performed according to the methods described in the foregoing examples.

[1] = tested on: olfactory neurospheres (ONS); test: Olfactory neurosphere (ONS) neuronal differentiation, immunostaining and morphology; details: added to ONS differentiation media, 3-4 days
Experimental: Cells were fixed in 4% paraformaldehyde for 20 min and then blocked for 2 h at room temperature before incubated with the appropriate primary antibodies overnight at 4° C. The following primary antibodies were used: mouse β-III-tubulin (Sigma, 1:500), mouse N-cam (Dako, 1:100), mouse GFAP (Merk, 1:500), chicken Sox1 (Merk, 1:500), rabbit Nestin (Merk, 1:500), rabbit Neurofilament-Light (Merk, 1:500), rabbit Synapsin (Calbiochem, 1:500) and sheep Olfactory Marker Protein (Abcam, 1:500). Appropriate secondary antibodies were added and incubated for lh before samples were washed and mounted using Prolong Gold (Invitrogen) and analyzed using either a fluorescent microscope (Nikon) or a confocal microscope (Leica). All secondary antibodies were from Molecular Probes and diluted at 1:1000, except for anti-sheep secondary antibody, which was from Dako and diluted at 1:500.
Primary olfactory cells were dissociated into single cells and seeded onto Poly L-Lysine (Sigma) coated tissue culture dishes at 20,000 cells/cm^2 in sphering media, which consists of DMEM+1×ITS+50 μg/mL EGF+25 μg/mL FGF2. Cells were then incubated at 37° C. with 5% CO2 until neurospheres started to form. This normally takes 2-3 days. Small neurospheres (<200 μm in diameter) were manually picked under a dissecting microscope (Leica) and collected for differentiation. […]

olfactory primary cells = test: Olfactory primary cell culture differentiation, β-III-tubulin immunostaining; details: 100 μM TRIM added, in all conditions, 4-7 days

SMILES	level of inhibition of SMAD4 (SMAD4; compared to cells cultured in the absence of inhibitors)	neurite morphology [1]	mRNA level / expression of SMAD4 (SMAD4; compared to cells cultured without inhibitors)	β-III-tubulin positive cells on addition of NOS inhibitor (olfactory primary cells)
Cl.c1ccc2c(-c3cnn4cc(-c5ccc(N6CCNCC6)cc5)cnc34)ccnc2c1 [LDN193189, 4-(6-(4-(piperazin-1-yl)phenyl)pyrazolo[1,5-a]pyrimidin-3-yl)quinolone hydrochloride]	80%	short neurites	–	–
NC(=O)c1ccc(-c2nc(-c3ccc4c(c3)OCO4)c(-c3ccccn3)[nH]2)cc1 [SB431542, 4-[4-(1,3-benzodioxol-5-yl)-5-(2-pyridinyl)-1H-imidazol-2-yl]benzamide]	–	short neurites	no change	–
FC(F)(F)c1ccccc1-n1ccnc1 [TRIM, 1-(2-Trifluoromethylphenyl) Imidazole]	–	–	–	further increase in β-III-tubulin positive cells
